pIC50: −log10 of the molar value. Residues, ends and D or L forms follow the SMILES beside them.
Tests used:
[1] = target: T1, GST-BIR3 fusion containing amino acids 259-364 from CIAP1 (Homo sapiens, UniProt Q13490); assay: CIAP1 BIR3 Smac Elisa; format: binding; details: concentration which displaces half of GST-BIR3 signal, IAP not given
T1 construct: a GST-BIR3 fusion containing amino acids 259-364 from CIAP1 was used
Procedure: (§1) In order to measure the ability of the inventive compounds to bind the BIR3 peptide binding pocket, a solution phase assay on the FMAT or ELISA technology platform is utilized.
(§2) Compounds are incubated with GST-BIR3 fusion protein and biotinylated SMAC peptide (AVPFAQK) in stretavidin-coated 96-well plates. For XIAP BIR3 Smac Elisa, a GST-BIR3 fusion containing amino acids 248-358 from XIAP was used. For CIAP1 BIR3 Smac Elisa, a GST-BIR3 fusion containing amino acids 259-364 from CIAP1 was used. Following a 30-minute incubation, wells are extensively washed. The remaining GST-BIR3 fusion protein is monitored by ELISA assay involving first, incubation with goat anti-GST antibodies followed by washing and incubation with alkaline phosphatase conjugated anti-goat antibodies. Signal is amplified using Attophos (Promega) and read with Cytoflour Ex 450 nm/40 and Em 580 nm. IC50s correspond to concentration of compound which displaces half of GST-BIR3 signal. The IC50 for non-biotinylated Smac is 400 nM.

[2] = target: T2, GST-BIR3 fusion containing amino acids 248-358 from XIAP (Homo sapiens, UniProt P98170); assay: XIAP BIR3 Smac Elisa; format: binding; details: concentration which displaces half of GST-BIR3 signal, IAP not given
T2 construct: a GST-BIR3 fusion containing amino acids 248-358 from XIAP was used
T2 sequence (P98170 248-358): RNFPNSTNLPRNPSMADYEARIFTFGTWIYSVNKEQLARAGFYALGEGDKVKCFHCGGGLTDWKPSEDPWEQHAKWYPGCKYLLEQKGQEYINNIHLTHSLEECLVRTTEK
Procedure: as §1, §2

[3] = tested on: GST-BIR3 fusion protein (BIR3 peptide binding pocket); assay: FMAT solution phase assay: competition of GST-BIR3 off Smac peptide beads
Procedure: as §1
Biotinylated Smac 7-mer peptide (AVPIAQK, lysine ε-amino group is biotinylated) is immobilized on streptavidin coated beads. GST-BIR3 fusion protein is precipitated with FMAT beads and is detected using fluorescent tagged anti-GST antibodies. […] The IC50 for non-biotinylated Smac is 400 nM.

T1 sequence (Q13490 259-364): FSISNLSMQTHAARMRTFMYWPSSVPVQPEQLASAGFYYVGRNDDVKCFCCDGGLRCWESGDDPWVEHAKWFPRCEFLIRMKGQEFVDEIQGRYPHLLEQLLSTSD

- pIC50 [1]: 6.40
- pIC50 [2]: 6.40
- competing GST-BIR3 off the FMAT beads ([3]; FIG. 2): highly effective
- pIC50 ([3]; FMAT, displacement of GST-BIR3 from biotinylated Smac 7-mer peptide (AVPIAQK) beads): 6.40
Compound: CC[C@H](C)[C@H](NC(=O)[C@@H]1CCCN1C(=O)[C@@H](NC(=O)[C@H](C)N)C(C)C)C(=O)N[C@@H](C)C(=O)N[C@@H](CCC(N)=O)C(=O)N[C@@H](CCCCN)C(=O)O [non-biotinylated Smac] (H-AVPIAQK-OH; N-terminus and C-terminus assumed)

Reference: patent US7989441B2, “Organic compounds” (Novartis AG, priority 2005, dated 2011)
